Results reported in ChEMBL document CHEMBL1201862, “PubChem BioAssay data set” (2004).
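These data come from cells grown in 96-well plates and exposed to compound for 48 hours at five concentrations. At the GI50, growth is halved.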 Calls of active or inactive are those of the source. Cut-off read from the data, not from the text of the source: active = GI50 up to about 1.1 µM and inactive = higher.

Key:
Test in all cases: NCI-60 cell line screen, 48 h
UACC-257 = test system: UACC-257
SF-268 = test system: SF-268
SNB-75 = test system: SNB-75
SF-539 = test system: SF-539
OVCAR-3 = test system: OVCAR-3
HCT-15 = test system: HCT-15
SW-620 = test system: SW-620
KM12 = test system: KM12
HL-60 = test system: HL-60
TK-10 = test system: TK-10
MDA-N = test system: MDA-N
OVCAR-8 = test system: OVCAR-8
K562 = test system: K562
A549 = test system: A549
NCI-H226 = test system: NCI-H226
RXF 393 = test system: RXF 393
OVCAR-4 = test system: OVCAR-4
SK-MEL-5 = test system: SK-MEL-5
HCC 2998 = test system: HCC 2998
HCT-116 = test system: HCT-116
COLO 205 = test system: COLO 205
ACHN = test system: ACHN
SNB-19 = test system: SNB-19
MCF7 = test system: MCF7
HOP-62 = test system: HOP-62
UO-31 = test system: UO-31
HOP-92 = test system: HOP-92
NCI-H460 = test system: NCI-H460
CCRF-CEM = test system: CCRF-CEM
Hs-578T = test system: Hs-578T
RPMI-8226 = test system: RPMI-8226
IGROV-1 = test system: IGROV-1
NCI-H23 = test system: NCI-H23
MDA-MB-435 = test system: MDA-MB-435
SK-MEL-2 = test system: SK-MEL-2
SF-295 = test system: SF-295
Malme-3M = test system: Malme-3M
HT-29 = test system: HT-29
OVCAR-5 = test system: OVCAR-5
786-0 = test system: 786-0
BT-549 = test system: BT-549
CAKI-1 = test system: CAKI-1
M14 = test system: M14
SK-MEL-28 = test system: SK-MEL-28
NCI/ADR-RES = test system: NCI/ADR-RES
SK-OV-3 = test system: SK-OV-3
NCI-H522 = test system: NCI-H522
U-251 = test system: U-251
DU-145 = test system: DU-145
SR = test system: SR
LOX IMVI = test system: LOX IMVI
SN12C = test system: SN12C
PC-3 = test system: PC-3
EKVX = test system: EKVX
T47D = test system: T47D
MDA-MB-231 = test system: MDA-MB-231
A498 = test system: A498
MOLT-4 = test system: MOLT-4
UACC-62 = test system: UACC-62

Compound: O=C(C[C@@H]1NCCC[C@H]1O)Cn1cnc2cc(Br)c(Cl)cc2c1=O
- GI50 (UACC-257): 0.0336 µM (active)
- GI50 (SF-268): 0.0315 µM (active)
- GI50 (SNB-75): 0.0403 µM (active)
- GI50 (SF-539): 0.023 µM (active)
- GI50 (OVCAR-3): < 0.0176 µM (active)
- GI50 (HCT-15): 0.0276 µM
- GI50 (SW-620): 0.0259 µM (active)
- GI50 (KM12): 0.0171 µM (active)
- GI50 (HL-60): 0.033 µM (active)
- GI50 (TK-10): 0.0491 µM (active)
- GI50 (MDA-N): 0.0138 µM (active)
- GI50 (OVCAR-8): < 0.0117 µM (active)
- GI50 (K562): 0.0216 µM (active)
- GI50 (A549): 0.0128 µM (active)
- GI50 (NCI-H226): < 0.0115 µM (active)
- GI50 (RXF 393): 0.0277 µM (active)
- GI50 (OVCAR-4): 0.0186 µM (active)
- GI50 (SK-MEL-5): 0.0153 µM (active)
- GI50 (HCC 2998): 0.0458 µM (active)
- GI50 (HCT-116): 0.023 µM (active)
- GI50 (COLO 205): 0.0165 µM (active)
- GI50 (ACHN): 0.0233 µM (active)
- GI50 (SNB-19): 0.0204 µM (active)
- GI50 (MCF7): < 0.01 µM (active)
- GI50 (HOP-62): 0.0279 µM (active)
- GI50 (UO-31): 0.0376 µM (active)
- GI50 (HOP-92): 0.0304 µM (active)
- GI50 (NCI-H460): 0.0127 µM (active)
- GI50 (CCRF-CEM): 0.0192 µM (active)
- GI50 (Hs-578T): 0.0274 µM (active)
- GI50 (RPMI-8226): 0.0243 µM (active)
- GI50 (IGROV-1): 0.0296 µM (active)
- GI50 (NCI-H23): 0.0195 µM (active)
- GI50 (MDA-MB-435): 0.012 µM (active)
- GI50 (SK-MEL-2): 0.0148 µM (active)
- GI50 (SF-295): 0.024 µM (active)
- GI50 (Malme-3M): 0.0318 µM (active)
- GI50 (HT-29): 0.022 µM (active)
- GI50 (OVCAR-5): < 0.0135 µM (active)
- GI50 (786-0): 0.0182 µM (active)
- GI50 (BT-549): 0.0347 µM (active)
- GI50 (CAKI-1): 0.0583 µM (active)
- GI50 (M14): 0.0178 µM (active)
- GI50 (SK-MEL-28): 0.0274 µM (active)
- GI50 (NCI/ADR-RES): 0.0416 µM (active)
- GI50 (SK-OV-3): < 0.0118 µM (active)
- GI50 (NCI-H522): < 0.0147 µM (active)
- GI50 (U-251): 0.0252 µM (active)
- GI50 (DU-145): 0.025 µM (active)
- GI50 (SR): 0.0146 µM (active)
- GI50 (LOX IMVI): < 0.01 µM (active)
- GI50 (SN12C): < 0.01 µM (active)
- GI50 (PC-3): 0.0351 µM (active)
- GI50 (EKVX): 0.0244 µM (active)
- GI50 (T47D): 0.0246 µM (active)
- GI50 (MDA-MB-231): 0.0284 µM (active)
- GI50 (A498): 0.0327 µM (active)
- GI50 (MOLT-4): 0.0266 µM (active)

Compound: C/C(=N\NC(N)=S)c1nc2cccnc2[nH]1
- GI50 (UACC-257): > 88.5 µM (inactive)
- GI50 (SF-268): 57.7 µM (inactive)
- GI50 (SNB-75): > 100 µM (inactive)
- GI50 (SF-539): 58.9 µM (inactive)
- GI50 (OVCAR-3): 31.8 µM (inactive)
- GI50 (HCT-15): 53.6 µM
- GI50 (SW-620): 56.8 µM (inactive)
- GI50 (KM12): 67.5 µM (inactive)
- GI50 (HL-60): 32.6 µM (inactive)
- GI50 (TK-10): > 80.4 µM (inactive)
- GI50 (MDA-N): > 100 µM (inactive)
- GI50 (OVCAR-8): > 67 µM (inactive)
- GI50 (K562): 71 µM (inactive)
- GI50 (A549): 57.5 µM (inactive)
- GI50 (NCI-H226): > 56 µM (inactive)
- GI50 (RXF 393): > 100 µM (inactive)
- GI50 (OVCAR-4): 25.6 µM (inactive)
- GI50 (SK-MEL-5): 47.3 µM (inactive)
- GI50 (HCC 2998): > 66.1 µM (inactive)
- GI50 (HCT-116): 54 µM (inactive)
- GI50 (COLO 205): 38.8 µM (inactive)
- GI50 (ACHN): 43 µM (inactive)
- GI50 (SNB-19): > 76.7 µM (inactive)
- GI50 (MCF7): 26.8 µM (inactive)
- GI50 (HOP-62): 67.3 µM (inactive)
- GI50 (UO-31): 24.9 µM (inactive)
- GI50 (HOP-92): 98.2 µM (inactive)
- GI50 (NCI-H460): 45.7 µM (inactive)
- GI50 (CCRF-CEM): 31.1 µM (inactive)
- GI50 (Hs-578T): > 100 µM (inactive)
- GI50 (RPMI-8226): > 96.6 µM (inactive)
- GI50 (UACC-62): 47.2 µM (inactive)
- GI50 (IGROV-1): 82 µM (inactive)
- GI50 (MDA-MB-435): 52.4 µM (inactive)
- GI50 (SK-MEL-2): > 100 µM (inactive)
- GI50 (SF-295): 84.9 µM (inactive)
- GI50 (Malme-3M): > 92.9 µM (inactive)
- GI50 (HT-29): 41.3 µM (inactive)
- GI50 (OVCAR-5): 47.1 µM (inactive)
- GI50 (786-0): 51.8 µM (inactive)
- GI50 (BT-549): 24.9 µM (inactive)
- GI50 (CAKI-1): 33.5 µM (inactive)
- GI50 (M14): 63.1 µM (inactive)
- GI50 (SK-MEL-28): > 88.9 µM (inactive)
- GI50 (NCI/ADR-RES): 38.5 µM (inactive)
- GI50 (SK-OV-3): 30.2 µM (inactive)
- GI50 (NCI-H522): > 68.5 µM (inactive)
- GI50 (U-251): 40.8 µM (inactive)
- GI50 (DU-145): 63.7 µM (inactive)
- GI50 (SR): 45.5 µM (inactive)
- GI50 (LOX IMVI): 73.5 µM (inactive)
- GI50 (SN12C): > 100 µM (inactive)
- GI50 (PC-3): 81.3 µM (inactive)
- GI50 (EKVX): 50 µM (inactive)
- GI50 (T47D): 45.1 µM (inactive)
- GI50 (MDA-MB-231): > 70.1 µM (inactive)
- GI50 (A498): > 100 µM (inactive)
- GI50 (MOLT-4): 34.8 µM (inactive)

Compound: CS(=O)(=O)Nc1ccc2c(c1)N(S(C)(=O)=O)CC2COS(C)(=O)=O (configuration not stated)
- GI50 (UACC-257): > 100 µM (inactive)
- GI50 (SF-268): > 10 µM (inactive)
- GI50 (SNB-75): 57.7 µM (inactive)
- GI50 (SF-539): 41.9 µM (inactive)
- GI50 (OVCAR-3): 34.6 µM (inactive)
- GI50 (HCT-15): > 100 µM
- GI50 (SW-620): 32.2 µM (inactive)
- GI50 (KM12): > 100 µM (inactive)
- GI50 (HL-60): 25.2 µM (inactive)
- GI50 (TK-10): 36.8 µM (inactive)
- GI50 (MDA-N): > 100 µM (inactive)
- GI50 (OVCAR-8): 94.4 µM (inactive)
- GI50 (K562): 52.4 µM (inactive)
- GI50 (A549): > 100 µM (inactive)
- GI50 (NCI-H226): > 100 µM (inactive)
- GI50 (RXF 393): 18.7 µM (inactive)
- GI50 (OVCAR-4): 76 µM (inactive)
- GI50 (SK-MEL-5): 18.9 µM (inactive)
- GI50 (HCC 2998): > 100 µM (inactive)
- GI50 (HCT-116): 54.6 µM (inactive)
- GI50 (COLO 205): > 100 µM (inactive)
- GI50 (ACHN): 35.7 µM (inactive)
- GI50 (MCF7): > 10 µM (inactive)
- GI50 (HOP-62): 31.1 µM (inactive)
- GI50 (UO-31): > 100 µM (inactive)
- GI50 (HOP-92): 33.2 µM (inactive)
- GI50 (NCI-H460): 90.8 µM (inactive)
- GI50 (CCRF-CEM): 35.8 µM (inactive)
- GI50 (Hs-578T): 94.2 µM (inactive)
- GI50 (RPMI-8226): 25.8 µM (inactive)
- GI50 (UACC-62): > 100 µM (inactive)
- GI50 (IGROV-1): > 100 µM (inactive)
- GI50 (NCI-H23): 45.1 µM (inactive)
- GI50 (MDA-MB-435): > 100 µM (inactive)
- GI50 (SK-MEL-2): 19.9 µM (inactive)
- GI50 (SF-295): 58.7 µM (inactive)
- GI50 (Malme-3M): 39.9 µM (inactive)
- GI50 (HT-29): > 100 µM (inactive)
- GI50 (OVCAR-5): 40.5 µM (inactive)
- GI50 (786-0): 31 µM (inactive)
- GI50 (BT-549): 50.4 µM (inactive)
- GI50 (CAKI-1): 24.6 µM (inactive)
- GI50 (SK-MEL-28): > 100 µM (inactive)
- GI50 (NCI/ADR-RES): > 100 µM (inactive)
- GI50 (NCI-H522): 19.7 µM (inactive)
- GI50 (U-251): 25.8 µM (inactive)
- GI50 (DU-145): 58.9 µM (inactive)
- GI50 (SR): 23.3 µM (inactive)
- GI50 (LOX IMVI): 70 µM (inactive)
- GI50 (SN12C): > 100 µM (inactive)
- GI50 (PC-3): > 100 µM (inactive)
- GI50 (EKVX): > 100 µM (inactive)
- GI50 (T47D): > 100 µM (inactive)
- GI50 (MDA-MB-231): > 100 µM (inactive)
- GI50 (A498): 85.9 µM (inactive)
- GI50 (MOLT-4): 32.5 µM (inactive)
